# Target: T1, cellular PARG (Homo sapiens, UniProt Q86W56)
# T1 construct: endogenous in cells; host or cells: HeLa
# Test: Nuclear PAR accumulation assay (immunofluorescence high-content imaging, MMS-treated HeLa cells)
# Format: cell-based
# Conditions: 1 hour compound then MMS 50 μg/mL for an additional hour
# Description: HeLa cells were plated at 15,000 cells/well in a 96-well plate the day before compound treatment and then treated with varying concentrations of test compound and incubated for 1 hour at 37° C.+5% CO2. Following test compound treatment, methylmethane sulfonate (MMS) was added to a final concentration of 50 μg/mL and the cells were incubated for an additional hour. Following treatment, the cells were fixed with ice cold 95% methanol and the plates sealed and placed at -20° C. for 15 minutes. The cells were then washed once with phosphate buffered saline (PBS) and permeabilized with 0.10% Triton-X 100 for 20 minutes at room temperature. […] The cells were then washed three times with PBS before incubation with a fluorescently conjugated goat anti-mouse antibody (Invitrogen A32723) diluted 1:500 in 5% FBS+0.1% Tween-20+PBS for 1 hour at room temperature. The cells were again washed three times with PBS and the nuclei labeled by incubating with 1 μg/mL DAPI (4′,6-diamidino-2-phenylindole). Nuclear PAR accumulation was evaluated using high-content fluorescence microscopy. Four fields for each well were acquired at 20× magnification resulting in at least 1,000 cells analyzed per well. […] Both the average intensity per nucleus and percent PAR positive cells were quantified. […] Concentration-response-curves and IC50 values were generated using four parameter logistic curve fit software.
# Representative data for exemplary compounds is presented in Table 32, Table 33 and Table 34.
# T1 sequence (Q86W56 whole entry): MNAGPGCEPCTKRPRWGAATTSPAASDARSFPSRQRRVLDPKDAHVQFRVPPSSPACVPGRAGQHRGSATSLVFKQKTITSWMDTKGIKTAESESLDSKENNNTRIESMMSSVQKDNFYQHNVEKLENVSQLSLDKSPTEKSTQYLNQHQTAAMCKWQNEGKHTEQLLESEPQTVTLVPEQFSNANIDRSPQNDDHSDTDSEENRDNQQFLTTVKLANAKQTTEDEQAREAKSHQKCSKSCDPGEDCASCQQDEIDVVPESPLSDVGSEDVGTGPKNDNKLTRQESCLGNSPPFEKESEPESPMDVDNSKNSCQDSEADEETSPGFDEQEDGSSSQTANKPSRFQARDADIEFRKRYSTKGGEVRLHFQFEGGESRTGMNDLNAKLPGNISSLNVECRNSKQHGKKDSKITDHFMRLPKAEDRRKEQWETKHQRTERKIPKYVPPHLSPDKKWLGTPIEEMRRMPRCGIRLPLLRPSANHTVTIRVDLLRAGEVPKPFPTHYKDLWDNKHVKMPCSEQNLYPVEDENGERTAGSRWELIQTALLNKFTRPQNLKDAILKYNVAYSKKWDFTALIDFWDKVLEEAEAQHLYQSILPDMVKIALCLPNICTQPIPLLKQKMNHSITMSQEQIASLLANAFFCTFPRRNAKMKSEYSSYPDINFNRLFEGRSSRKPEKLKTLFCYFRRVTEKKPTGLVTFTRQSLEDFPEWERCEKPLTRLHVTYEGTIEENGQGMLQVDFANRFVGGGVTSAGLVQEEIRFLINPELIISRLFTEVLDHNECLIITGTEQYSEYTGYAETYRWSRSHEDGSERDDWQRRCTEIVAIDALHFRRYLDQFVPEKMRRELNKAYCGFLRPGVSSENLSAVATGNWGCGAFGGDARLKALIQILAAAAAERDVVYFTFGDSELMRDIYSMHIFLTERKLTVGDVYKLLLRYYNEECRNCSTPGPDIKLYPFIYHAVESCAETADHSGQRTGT
row,IC50,Compound
1,< 100 nM,"[2H]C([2H])(c1cnn(C)c1)N1C(=O)c2cc(S(=O)(=O)NC3(C)CC3)ccc2N2C1=NC[C@H]2C#Cc1ncccc1C [Example 242, (R)-4-((1-methyl-1H-pyrazol-4-yl)methyl-d2)-N-(1-methylcyclopropyl)-1-((3-methylpyridin-2-yl)ethynyl)-5-oxo-1,2,4,5-tetrahydroimidazo[1,2-a]quinazoline-7-sulfonamide]"
2,< 100 nM,"CN1C(=O)c2cc(S(=O)(=O)NC3(C)CC3)ccc2N2C1=NCC2C#Cc1cnc2ccccn12 (stereo not drawn) [Example 167, 1-(imidazo[1,2-a]pyridin-3-ylethynyl)-4-methyl-N-(1-methylcyclopropyl)-5-oxo-1,2,4,5-tetrahydroimidazo[1,2-a]quinazoline-7-sulfonamide]"
3,< 100 nM,"Cn1cc(CN2C(=O)c3cc(S(=O)(=O)NC4(C)CC4)ccc3N3C2=NC[C@H]3C#Cc2ccnn2C)cn1 [Example 165, (R)-4-((1-methyl-1H-pyrazol-4-yl)methyl)-1-((1-methyl-1H-pyrazol-5-yl)ethynyl)-N-(1-methylcyclopropyl)-5-oxo-1,2,4,5-tetrahydroimidazo[1,2-a]quinazoline-7-sulfonamide]"
4,< 100 nM,"[2H]C([2H])(c1cnn(C)c1)N1C(=O)c2cc(S(=O)(=O)NC3(C)CC3)ccc2N2C1=NC[C@H]2C#Cc1cnc(OC)nc1 [Example 259, (R)-1-((2-methoxypyrimidin-5-yl)ethynyl)-4-((1-methyl-1H-pyrazol-4-yl)methyl-d2)-N-(1-methylcyclopropyl)-5-oxo-1,2,4,5-tetrahydroimidazo[1,2-a]quinazoline-7-sulfonamide]"
5,< 100 nM,"Cn1cc(CN2C(=O)c3cc(S(=O)(=O)NC4(C)CC4)ccc3N3C2=NC[C@H]3C#Cc2ccccc2)cn1 [Example 36, (R)-4-((1-methyl-1H-pyrazol-4-yl)methyl)-N-(1-methylcyclopropyl)-5-oxo-1-(phenylethynyl)-1,2,4,5-tetrahydroimidazo[1,2-a]quinazoline-7-sulfonamide]"
6,< 100 nM,"CN1C(=O)c2cc(S(=O)(=O)NC3(C)CC3)ccc2N2C1=NCC2C#Cc1ccnc2c1OCCO2 (stereo not drawn) [Example 170, 1-((2,3-dihydro-[1,4]dioxino[2,3-b]pyridin-8-yl)ethynyl)-4-methyl-N-(1-methylcyclopropyl)-5-oxo-1,2,4,5-tetrahydroimidazo[1,2-a]quinazoline-7-sulfonamide]"
7,< 100 nM,"CC(C)OC[C@@H]1CN=C2N(Cc3cnn(C)c3)C(=O)c3cc(S(=O)(=O)NC4(C)CC4)ccc3N21 [Example 19, (S)-1-(isopropoxymethyl)-4-((1-methyl-1H-pyrazol-4-yl)methyl)-N-(1-methylcyclopropyl)-5-oxo-1,2,4,5-tetrahydroimidazo[1,2-a]quinazoline-7-sulfonamide]"
8,< 100 nM,"Cn1cc(CN2C(=O)c3cc(S(=O)(=O)NC4(C)CC4)ccc3N3C2=NC[C@H]3C#Cc2cnn(C)n2)cn1 [Example 140, (R)-4-((1-methyl-1H-pyrazol-4-yl)methyl)-1-((2-methyl-2H-1,2,3-triazol-4-yl)ethynyl)-N-(1-methylcyclopropyl)-5-oxo-1,2,4,5-tetrahydroimidazo[1,2-a]quinazoline-7-sulfonamide]"
9,< 100 nM,"[2H]C([2H])(c1cnn(C)c1)N1C(=O)c2cc(S(=O)(=O)NC3(C)CC3)ccc2N2C1=NC[C@H]2C#CC1(C)CC1 [Example 49, (R)-4-((1-methyl-1H-pyrazol-4-yl)methyl-d2)-N-(1-methylcyclopropyl)-1-((1-methylcyclopropyl)ethynyl)-5-oxo-1,2,4,5-tetrahydroimidazo[1,2-a]quinazoline-7-sulfonamide]"
10,< 100 nM,"[2H]C([2H])(c1cnn(C)c1)N1C(=O)c2cc(S(=O)(=O)NC3(C)CC3)ccc2N2C1=NC[C@H]2C#Cc1cncc(N)c1 [Example 252, (R)-1-((5-aminopyridin-3-yl)ethynyl)-4-((1-methyl-1H-pyrazol-4-yl)methyl-d2)-N-(1-methylcyclopropyl)-5-oxo-1,2,4,5-tetrahydroimidazo[1,2-a]quinazoline-7-sulfonamide]"
11,< 100 nM,"CN1C(=O)c2cc(S(=O)(=O)NC3(C)CC3)cc(C3=CCN(C(=O)C4CC4)CC3)c2N2C1=N[C@H]1CCC[C@H]12 [Example 52, (7aS,10aR)-1-(1-(cyclopropanecarbonyl)-1,2,3,6-tetrahydropyridin-4-yl)-6-methyl-N-(1-methylcyclopropyl)-5-oxo-6,7a,8,9,10,10a-hexahydro-5H-cyclopenta[4,5]imidazo[1,2-a]quinazoline-3-sulfonamide]"
12,100 to 1000 nM,"CC(=O)NC[C@@H]1N=C2N(Cc3cnn(C)c3)C(=O)c3cc(S(=O)(=O)NC4(C)CC4)ccc3N2[C@@H]1C [Example 295, N-(((1R,2S)-1-methyl-4-((1-methyl-1H-pyrazol-4-yl)methyl)-7-(N-(1-methylcyclopropyl)sulfamoyl)-5-oxo-1,2,4,5-tetrahydroimidazo[1,2-a]quinazolin-2-yl)methyl)acetamide]"
13,< 100 nM,"CN1CCC[C@H]1[C@@H]1CN=C2N(Cc3cnn(C)c3)C(=O)c3cc(S(=O)(=O)NC4(C)CC4)ccc3N21 [Example 276, (S)-4-((1-methyl-1H-pyrazol-4-yl)methyl)-N-(1-methylcyclopropyl)-1-((S)-1-methylpyrrolidin-2-yl)-5-oxo-1,2,4,5-tetrahydroimidazo[1,2-a]quinazoline-7-sulfonamide]"
14,< 100 nM,"CCN1C(=O)c2cc(S(=O)(=O)NC3(C)CC3)c(F)cc2N2C1=N[C@H]1CCC[C@H]12 [Example 264, (7aS,10aR)-6-ethyl-2-fluoro-N-(1-methylcyclopropyl)-5-oxo-6,7a,8,9,10,10a-hexahydro-5H-cyclopenta[4,5]imidazo[1,2-a]quinazoline-3-sulfonamide]"
15,1000 to 10000 nM,"C[C@@H]1CN=C2N(Cc3ccnc(/C=C/CN(C)C)c3)C(=O)c3cc(S(=O)(=O)NC4(C)CC4)ccc3N21 [Example 267, (R,E)-4-((2-(3-(dimethylamino)prop-1-en-1-yl)pyridin-4-yl)methyl)-1-methyl-N-(1-methylcyclopropyl)-5-oxo-1,2,4,5-tetrahydroimidazo[1,2-a]quinazoline-7-sulfonamide]"
16,100 to 1000 nM,"C[C@@H]1CN=C2N(Cc3cnn(C)c3)C(=O)c3cc(S(=O)(=O)NC4(C)CC4)cc(N4CC[C@@H](N)C4)c3N21 [Example 71, (R)-9-((R)-3-aminopyrrolidin-1-yl)-1-methyl-4-((1-methyl-1H-pyrazol-4-yl)methyl)-N-(1-methylcyclopropyl)-5-oxo-1,2,4,5-tetrahydroimidazo[1,2-a]quinazoline-7-sulfonamide]"
17,< 100 nM,"CN1C(=O)c2cc(S(=O)(=O)NC3(C)CC3)ccc2N2C1=NC[C@H]2C#CC1(N(C)C)CC1 [Example 129, (R)-1-((1-(dimethylamino)cyclopropyl)ethynyl)-4-methyl-N-(1-methylcyclopropyl)-5-oxo-1,2,4,5-tetrahydroimidazo[1,2-a]quinazoline-7-sulfonamide]"
18,< 100 nM,"Cn1cc(CN2C(=O)c3cc(S(=O)(=O)NC4(C)CC4)ccc3N3C2=NC[C@H]3COc2cccc(F)c2)cn1 [Example 30, (S)-1-((3-fluorophenoxy)methyl)-4-((1-methyl-1H-pyrazol-4-yl)methyl)-N-(1-methylcyclopropyl)-5-oxo-1,2,4,5-tetrahydroimidazo[1,2-a]quinazoline-7-sulfonamide]"
19,100 to 1000 nM,"C#C[C@H]1CN2C(=N1)N(Cc1cnn(C)c1)C(=O)c1cc(S(=O)(=O)NC3(C)CC3)ccc12 [Example 156, (S)-2-ethynyl-4-((1-methyl-1H-pyrazol-4-yl)methyl)-N-(1-methylcyclopropyl)-5-oxo-1,2,4,5-tetrahydroimidazo[1,2-a]quinazoline-7-sulfonamide]"
20,100 to 1000 nM,"C[C@@H]1CN=C2N(Cc3cccnc3CC#N)C(=O)c3cc(S(=O)(=O)NC4(C)CC4)ccc3N21 [Example 247, (R)-4-((2-(cyanomethyl)pyridin-3-yl)methyl)-1-methyl-N-(1-methylcyclopropyl)-5-oxo-1,2,4,5-tetrahydroimidazo[1,2-a]quinazoline-7-sulfonamide]"
21,< 100 nM,"C#C[C@@H]1CN=C2N(C)C(=O)c3cc(S(=O)(=O)NC4(C)CC4)cc(Cl)c3N21 [Example 51, (R)-9-chloro-1-ethynyl-4-methyl-N-(1-methylcyclopropyl)-5-oxo-1,2,4,5-tetrahydroimidazo[1,2-a]quinazoline-7-sulfonamide]"
22,< 100 nM,"CN1C(=O)c2cc(S(=O)(=O)NC3(C)CC3)ccc2N2C1=NC[C@H]2C#Cc1cnc2cccnn12 [Example 149, (R)-1-(imidazo[1,2-b]pyridazin-3-ylethynyl)-4-methyl-N-(1-methylcyclopropyl)-5-oxo-1,2,4,5-tetrahydroimidazo[1,2-a]quinazoline-7-sulfonamide]"
23,< 100 nM,"Cn1cc(CN2C(=O)c3cc(S(=O)(=O)NC4(C)CC4)ccc3N3C2=NC[C@H]3C2CCC2)cn1 [Example 118, (R)-1-cyclobutyl-4-((1-methyl-1H-pyrazol-4-yl)methyl)-N-(1-methylcyclopropyl)-5-oxo-1,2,4,5-tetrahydroimidazo[1,2-a]quinazoline-7-sulfonamide]"
24,100 to 1000 nM,"CN1CCN(C2(C#C[C@@H]3CN=C4N(C)C(=O)c5cc(S(=O)(=O)NC6(C)CC6)ccc5N43)CC2)CC1 [Example 229, (R)-4-methyl-N-(1-methylcyclopropyl)-1-((1-(4-methylpiperazin-1-yl)cyclopropyl)ethynyl)-5-oxo-1,2,4,5-tetrahydroimidazo[1,2-a]quinazoline-7-sulfonamide]"

# From patent US20260285875A1, “INHIBITORS OF PARG” (858 Therapeutics, Inc., priority 2023, published 2026)
